Source: ChEMBL document CHEMBL1131845, “Naphthazarin derivatives (II): formation of glutathione conjugate, inhibition of DNA topoisomerase-I and cytotoxicity” (Bioorg Med Chem Lett, 1999)
In brackets after ≈: the same amount, converted by molar mass.

Experiments:
L1210 = test: Cytotoxicity against L1210 cells; format: functional; conditions: Mus musculus, read-out: ED50 (the source's name)
[1] = Concentration formed during 5 min incubation of quinone (1 mM) with GSH (5 mM)

Concentration [1] [mM]	SMILES	EC50 (L1210) [µg/mL]
0.137	CCCCCCCC(O)c1cc(OC)c2c(c1OC)C(=O)C=CC2=O (stereo not given)	0.274 (≈ 0.791 µM)
0.304	COc1cc(C(C)O)c(OC)c2c1C(=O)C=CC2=O (stereo not given)	0.132 (≈ 0.503 µM)
0.072	CCCCCCC(O)C1=CC(=O)c2c(OC)ccc(OC)c2C1=O (stereo not given)	0.732 (≈ 2.2 µM)
0.295	CCC(O)c1cc(OC)c2c(c1OC)C(=O)C=CC2=O (stereo not given)	0.085 (≈ 0.308 µM)
0.06	CCCCCCCC(O)C1=CC(=O)c2c(OC)ccc(OC)c2C1=O (stereo not given)	1.04 (≈ 3.01 µM)
0.314	COc1cc(CO)c(OC)c2c1C(=O)C=CC2=O	0.062 (≈ 0.25 µM)
0.28	CCCCCC(O)c1cc(OC)c2c(c1OC)C(=O)C=CC2=O (stereo not given)	0.066 (≈ 0.207 µM)
0.182	CCCCCCC(O)c1cc(OC)c2c(c1OC)C(=O)C=CC2=O (stereo not given)	0.22 (≈ 0.662 µM)

The remaining lines, values behind:

SMILES	Concentration [1] [mM]	EC50 (L1210) [µg/mL]
CCCCC(O)C1=CC(=O)c2c(OC)ccc(OC)c2C1=O (stereo not given)	0.131	0.412 (≈ 1.35 µM)
CCCC(O)c1cc(OC)c2c(c1OC)C(=O)C=CC2=O (stereo not given)	–	0.043 (≈ 0.148 µM)
COc1ccc(OC)c2c1C(=O)C=C(C(C)O)C2=O (stereo not given)	0.125	0.487 (≈ 1.86 µM)
CCCCC(O)c1cc(OC)c2c(c1OC)C(=O)C=CC2=O (stereo not given)	–	0.057 (≈ 0.187 µM)
CCCCCC(O)C1=CC(=O)c2c(OC)ccc(OC)c2C1=O (stereo not given)	0.124	0.378 (≈ 1.19 µM)
CCCC(O)C1=CC(=O)c2c(OC)ccc(OC)c2C1=O (stereo not given)	0.116	0.409 (≈ 1.41 µM)
COc1ccc(OC)c2c1C(=O)C=C(CO)C2=O	0.13	0.524 (≈ 2.11 µM)
CCC(O)C1=CC(=O)c2c(OC)ccc(OC)c2C1=O (stereo not given)	0.084	0.516 (≈ 1.87 µM)
